We go through six molecules from ChEMBL document CHEMBL3132769, “Fragment growing to retain or alter the selectivity of anchored kinase hinge-binding fragments” (Medchemcomm, 2014).

For orientation: inhibition means the drop in the measured response relative to a control, in per cent.

For experiment [1], the target named is Glycogen synthase kinase-3 beta (Homo sapiens) (UniProt P49841). Put plainly: Inhibition of human full length GSK-3 beta expressed in baculovirus assessed as substrate phosphorylation using fluorescence-labelled peptides as substrate at 2 uM after 90 mins by microfluidic peptide phosphorylation assay.
The target in experiment [2] is Mitogen-activated protein kinase 3 (Homo sapiens) (UniProt P27361). Description: Inhibition of human full length ERK1 expressed in Escherichia coli cell assessed as substrate phosphorylation using fluorescence-labelled peptides as substrate at 2 uM after 90 mins by microfluidic peptide phosphorylation assay.
The target in experiment [3] is T1, Serine/threonine-protein kinase Sgk2 (Homo sapiens) (UniProt Q9HBY8).
T1 sequence (whole entry): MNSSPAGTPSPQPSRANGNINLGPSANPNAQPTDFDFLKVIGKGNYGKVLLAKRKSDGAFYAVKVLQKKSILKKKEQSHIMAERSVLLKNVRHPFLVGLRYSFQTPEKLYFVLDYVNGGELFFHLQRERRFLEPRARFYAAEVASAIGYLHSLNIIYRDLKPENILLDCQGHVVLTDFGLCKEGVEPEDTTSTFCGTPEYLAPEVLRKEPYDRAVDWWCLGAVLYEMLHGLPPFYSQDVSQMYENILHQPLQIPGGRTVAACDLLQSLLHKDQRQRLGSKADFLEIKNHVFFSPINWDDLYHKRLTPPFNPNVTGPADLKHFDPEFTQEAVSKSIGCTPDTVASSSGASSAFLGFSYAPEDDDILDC
Put plainly: Inhibition of human full length SGK2 expressed in baculovirus assessed as substrate phosphorylation using fluorescence-labelled peptides as substrate at 0.2 uM after 90 mins by microfluidic peptide phosphorylation assay.

Experiment [4] addresses T2, Serine/threonine-protein kinase Sgk3 (Homo sapiens) (UniProt Q96BR1).
T2 sequence (whole entry): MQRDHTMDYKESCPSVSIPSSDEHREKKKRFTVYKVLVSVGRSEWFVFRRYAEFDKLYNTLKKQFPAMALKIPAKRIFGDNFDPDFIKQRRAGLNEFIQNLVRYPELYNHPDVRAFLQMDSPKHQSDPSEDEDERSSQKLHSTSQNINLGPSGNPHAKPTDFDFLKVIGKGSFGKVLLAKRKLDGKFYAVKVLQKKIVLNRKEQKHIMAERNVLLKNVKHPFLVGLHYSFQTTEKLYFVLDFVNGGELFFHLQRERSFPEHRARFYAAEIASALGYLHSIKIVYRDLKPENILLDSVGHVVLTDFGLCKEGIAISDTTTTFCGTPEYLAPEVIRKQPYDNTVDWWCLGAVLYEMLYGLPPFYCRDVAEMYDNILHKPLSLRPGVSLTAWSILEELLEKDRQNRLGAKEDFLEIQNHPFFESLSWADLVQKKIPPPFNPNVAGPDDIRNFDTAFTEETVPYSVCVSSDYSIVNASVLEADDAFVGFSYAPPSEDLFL
Description: Inhibition of human full length SGK3 expressed in baculovirus assessed as substrate phosphorylation using fluorescence-labelled peptides as substrate at 0.06 uM after 90 mins by microfluidic peptide phosphorylation assay.

In experiment [5] the target is Hepatocyte growth factor receptor (Homo sapiens) (UniProt P08581). Put plainly: Inhibition of human MET cytoplasmic domain expressed in baculovirus assessed as substrate phosphorylation using fluorescence-labelled peptides as substrate at 0.06 uM after 90 mins by microfluidic peptide phosphorylation assay.
Experiment [6] deals with T3, Inhibitor of nuclear factor kappa-B kinase subunit beta (Homo sapiens) (UniProt O14920).
T3 sequence (whole entry): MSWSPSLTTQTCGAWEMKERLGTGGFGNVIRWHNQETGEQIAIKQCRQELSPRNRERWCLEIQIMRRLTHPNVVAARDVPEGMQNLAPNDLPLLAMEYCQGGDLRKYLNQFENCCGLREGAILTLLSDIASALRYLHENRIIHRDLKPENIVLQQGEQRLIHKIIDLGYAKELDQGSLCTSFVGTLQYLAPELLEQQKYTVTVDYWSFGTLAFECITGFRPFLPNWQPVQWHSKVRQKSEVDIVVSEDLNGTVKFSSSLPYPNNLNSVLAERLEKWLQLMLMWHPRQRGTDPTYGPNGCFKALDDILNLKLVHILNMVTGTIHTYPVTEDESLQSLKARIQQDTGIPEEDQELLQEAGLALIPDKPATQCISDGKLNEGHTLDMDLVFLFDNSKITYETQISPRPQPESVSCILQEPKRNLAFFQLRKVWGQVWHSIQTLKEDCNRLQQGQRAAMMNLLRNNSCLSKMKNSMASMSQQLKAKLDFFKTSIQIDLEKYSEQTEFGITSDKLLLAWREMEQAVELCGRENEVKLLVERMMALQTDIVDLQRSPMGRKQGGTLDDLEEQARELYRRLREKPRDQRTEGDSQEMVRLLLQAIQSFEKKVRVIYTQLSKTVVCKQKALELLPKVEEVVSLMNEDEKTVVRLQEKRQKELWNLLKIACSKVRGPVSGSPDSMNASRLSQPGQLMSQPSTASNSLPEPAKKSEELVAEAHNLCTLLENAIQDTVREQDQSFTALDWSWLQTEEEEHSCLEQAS
Put plainly: Inhibition of human full length IKK beta expressed in baculovirus assessed as substrate phosphorylation using fluorescence-labelled peptides as substrate at 9 uM after 90 mins by microfluidic peptide phosphorylation assay.

In experiment [7] the target is T4, Serine/threonine-protein kinase Sgk1 (Homo sapiens) (UniProt O00141).
T4 sequence (whole entry): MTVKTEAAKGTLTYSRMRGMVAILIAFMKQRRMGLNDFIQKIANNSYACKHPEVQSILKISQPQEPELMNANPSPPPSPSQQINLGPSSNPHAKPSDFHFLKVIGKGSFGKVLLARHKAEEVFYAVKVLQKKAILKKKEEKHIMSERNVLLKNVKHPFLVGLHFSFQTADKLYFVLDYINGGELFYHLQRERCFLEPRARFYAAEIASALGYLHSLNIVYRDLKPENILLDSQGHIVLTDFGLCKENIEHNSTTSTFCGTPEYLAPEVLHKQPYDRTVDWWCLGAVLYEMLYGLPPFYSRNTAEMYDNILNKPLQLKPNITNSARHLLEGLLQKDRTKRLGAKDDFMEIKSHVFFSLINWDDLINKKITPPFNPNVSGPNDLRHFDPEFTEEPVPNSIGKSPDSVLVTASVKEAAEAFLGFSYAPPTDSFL
Description: Inhibition of human truncated SGK1 expressed in baculovirus assessed as substrate phosphorylation using fluorescence-labelled peptides as substrate at 70 uM after 90 mins by microfluidic peptide phosphorylation assay.

The target in experiment [8] is Protein kinase C theta type (Homo sapiens) (UniProt Q04759). Description: Inhibition of human truncated PKC theta expressed in baculovirus assessed as substrate phosphorylation using fluorescence-labelled peptides as substrate at 1000 uM after 90 mins by microfluidic peptide phosphorylation assay.
Sequence of Protein kinase C theta type (Homo sapiens) (Q04759 whole entry, looked up, the tested form may be a part): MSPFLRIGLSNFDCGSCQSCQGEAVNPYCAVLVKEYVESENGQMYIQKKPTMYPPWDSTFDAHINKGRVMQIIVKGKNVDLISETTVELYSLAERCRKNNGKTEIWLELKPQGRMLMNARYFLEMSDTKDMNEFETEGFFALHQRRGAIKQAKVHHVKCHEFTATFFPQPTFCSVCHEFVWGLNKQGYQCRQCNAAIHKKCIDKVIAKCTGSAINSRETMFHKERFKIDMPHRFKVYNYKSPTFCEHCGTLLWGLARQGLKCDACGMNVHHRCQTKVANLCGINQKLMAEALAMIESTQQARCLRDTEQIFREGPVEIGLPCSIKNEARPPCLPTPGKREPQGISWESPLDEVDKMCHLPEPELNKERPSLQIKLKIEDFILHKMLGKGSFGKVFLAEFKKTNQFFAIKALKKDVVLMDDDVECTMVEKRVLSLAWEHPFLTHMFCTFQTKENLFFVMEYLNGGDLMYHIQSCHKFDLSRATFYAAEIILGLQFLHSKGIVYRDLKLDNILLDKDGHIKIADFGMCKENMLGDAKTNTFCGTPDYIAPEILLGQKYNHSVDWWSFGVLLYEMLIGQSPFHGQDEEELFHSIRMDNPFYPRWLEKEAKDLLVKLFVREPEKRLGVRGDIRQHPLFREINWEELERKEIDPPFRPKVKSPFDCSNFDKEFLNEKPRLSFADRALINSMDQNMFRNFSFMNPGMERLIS

Sequence of Mitogen-activated protein kinase 3 (Homo sapiens) (P27361 whole entry): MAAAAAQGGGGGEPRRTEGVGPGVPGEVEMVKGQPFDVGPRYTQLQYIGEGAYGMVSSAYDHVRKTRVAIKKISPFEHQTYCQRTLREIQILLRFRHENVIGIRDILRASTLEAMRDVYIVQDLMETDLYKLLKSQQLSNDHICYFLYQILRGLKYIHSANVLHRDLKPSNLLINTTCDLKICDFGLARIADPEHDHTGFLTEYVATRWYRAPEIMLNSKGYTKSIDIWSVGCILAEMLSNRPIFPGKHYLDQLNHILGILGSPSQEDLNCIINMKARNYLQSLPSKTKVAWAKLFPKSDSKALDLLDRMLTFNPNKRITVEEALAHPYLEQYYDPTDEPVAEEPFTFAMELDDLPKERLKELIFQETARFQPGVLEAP
Sequence of Glycogen synthase kinase-3 beta (Homo sapiens) (P49841 whole entry, looked up): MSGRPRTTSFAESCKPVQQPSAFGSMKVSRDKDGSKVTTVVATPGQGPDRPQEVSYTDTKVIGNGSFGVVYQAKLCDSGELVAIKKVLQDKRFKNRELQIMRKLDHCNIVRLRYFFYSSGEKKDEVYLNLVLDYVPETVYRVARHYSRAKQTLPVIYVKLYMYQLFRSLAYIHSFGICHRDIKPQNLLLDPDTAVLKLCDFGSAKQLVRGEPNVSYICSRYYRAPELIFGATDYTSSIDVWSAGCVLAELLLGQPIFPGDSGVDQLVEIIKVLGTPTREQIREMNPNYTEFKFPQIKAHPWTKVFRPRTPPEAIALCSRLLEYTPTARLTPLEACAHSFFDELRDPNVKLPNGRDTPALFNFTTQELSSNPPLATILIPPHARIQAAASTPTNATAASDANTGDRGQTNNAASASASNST
Sequence of Hepatocyte growth factor receptor (Homo sapiens) (P08581 whole entry, the tested form may be a part): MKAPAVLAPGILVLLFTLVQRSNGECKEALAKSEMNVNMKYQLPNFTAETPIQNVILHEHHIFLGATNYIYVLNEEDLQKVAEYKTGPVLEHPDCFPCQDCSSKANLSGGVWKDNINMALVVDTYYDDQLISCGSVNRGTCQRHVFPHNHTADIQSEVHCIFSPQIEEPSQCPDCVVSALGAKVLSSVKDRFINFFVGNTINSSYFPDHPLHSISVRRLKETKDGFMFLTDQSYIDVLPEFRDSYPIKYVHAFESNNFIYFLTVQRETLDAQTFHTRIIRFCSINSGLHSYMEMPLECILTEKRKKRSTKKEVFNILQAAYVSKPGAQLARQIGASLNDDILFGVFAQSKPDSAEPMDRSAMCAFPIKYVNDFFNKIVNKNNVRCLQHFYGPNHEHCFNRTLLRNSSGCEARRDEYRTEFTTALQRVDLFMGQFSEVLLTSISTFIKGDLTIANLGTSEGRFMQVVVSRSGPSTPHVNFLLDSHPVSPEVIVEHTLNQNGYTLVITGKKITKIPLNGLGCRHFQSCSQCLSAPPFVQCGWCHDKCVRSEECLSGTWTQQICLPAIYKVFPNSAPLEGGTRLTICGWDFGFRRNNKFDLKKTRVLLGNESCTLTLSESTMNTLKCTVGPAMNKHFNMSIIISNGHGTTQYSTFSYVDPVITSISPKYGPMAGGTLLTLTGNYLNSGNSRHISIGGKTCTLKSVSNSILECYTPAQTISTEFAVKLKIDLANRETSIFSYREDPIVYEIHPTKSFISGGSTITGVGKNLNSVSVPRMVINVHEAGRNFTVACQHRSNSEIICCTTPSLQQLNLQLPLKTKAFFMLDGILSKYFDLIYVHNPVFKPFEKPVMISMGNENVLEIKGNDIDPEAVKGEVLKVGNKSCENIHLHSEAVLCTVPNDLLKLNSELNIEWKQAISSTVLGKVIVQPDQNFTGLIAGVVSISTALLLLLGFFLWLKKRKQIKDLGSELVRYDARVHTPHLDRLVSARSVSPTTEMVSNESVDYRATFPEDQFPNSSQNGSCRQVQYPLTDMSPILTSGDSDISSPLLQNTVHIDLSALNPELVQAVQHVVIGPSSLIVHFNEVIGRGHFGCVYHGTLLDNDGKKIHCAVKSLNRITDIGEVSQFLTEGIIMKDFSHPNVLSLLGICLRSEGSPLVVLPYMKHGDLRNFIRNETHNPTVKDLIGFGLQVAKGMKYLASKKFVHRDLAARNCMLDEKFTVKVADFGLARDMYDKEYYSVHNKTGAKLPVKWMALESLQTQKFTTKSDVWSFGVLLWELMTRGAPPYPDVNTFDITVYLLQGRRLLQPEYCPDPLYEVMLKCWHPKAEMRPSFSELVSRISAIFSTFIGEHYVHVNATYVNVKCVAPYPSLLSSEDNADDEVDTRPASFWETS

For `NC1CCN(c2ncnc3[nH]ccc23)CC1`, the inhibition was 5% in experiment [1] and 1% in experiment [2].
Take `Clc1ccc(C2(c3ccc(-c4ncnc5[nH]cnc45)cc3)CCNCC2)cc1`: in experiment [3], the inhibition came out at 23.5%.
Take `NC1(Cc2ccc(Cl)cc2)CCN(c2ncnc3[nH]ccc23)CC1`: the values for the inhibition in experiment [4] and in experiment [5] were 42.5% and 0%, respectively.
Regarding `NCC1CN(c2ncnc3[nH]c4cnccc4c23)CCO1` (stereo not drawn), in experiment [6], the inhibition amounted to 83%.
Consider `CNCc1ccc(-c2ncnc3[nH]cnc23)cc1`, for which the inhibition in experiment [7] worked out at 48%.
For the molecule `c1cnc2[nH]ccc2c1`, the inhibition in experiment [8] was 29%.
